Results from patent publication US9133157B2, “HIV protease inhibitors” (Merck Canada Inc., priority 2011, dated 2015).

Target: WT HIV-1 protease (Human immunodeficiency virus type 1 group M subtype B (isolate HXB2) (HIV-1), UniProt P04585)
Test: Assay for inhibition of microbial expressed HIV protease (Procedure A, peptide substrate, HPLC fluorescence detection)
Assay type: biochemical
Conditions: WT HIV-1 protease 10 pM, substrate 400 micromolar, pH 5.5, 30 min preincubation, 1 hour at 30° C.; read-out: Enzyme inhibition IC50
Experimental: The inhibition of WT HIV-1 protease was studied using the reaction of the protease (expressed in Eschericia coli) with a peptide substrate [Val-Ser-Gln-Asn-(betanaphthyl)Ala-Pro-Ile-Val (SEQ ID NO:1)]. Compounds were tested using Procedure A. In Procedure A, the test compound was first preincubated with the enzyme in assay buffer (50 mM sodium acetate, pH 5.5, 100 mM NaCl, and 0.1% BSA) for 30 minutes at room temperature. Substrate was then added to 400 micromolar in a total volume of 80 microliters containing 10 picomolar HIV-1 protease and the reaction was incubated for 1 hour at 30° C. The reaction was quenched with the addition of 120 microliters of 10% phosphoric acid. The product formation was determined after separation of product and substrate on a Zorbax Eclipse XDB-C18 column (Agilent Technologies, Santa Clara, Calif.) connected to an Agilent 1100 high performance liquid chromatography system with fluorescence detection (excitation 270 nanometer and emission 330 nanometer).

Compound	IC50 [nM]
COC(=O)N[C@H](C(=O)N[C@@H](C)c1ccc([C@@H](CO)N(CC(C)C)S(=O)(=O)c2ccc(N)cc2)s1)C(c1ccccc1)c1ccccc1 [Example 76, N-[(1S)-1-{5-[(1R)-1-{[(4-aminophenyl)sulfonyl](2-methylpropyl)amino}-2-hydroxyethyl]thiophen-2-yl}ethyl]-Nα-(methoxycarbonyl)-β-phenyl-L-phenylalaninamide]	11.8
COC(=O)N[C@H](C(=O)N[C@H](c1ccc([C@@H](CO)N(C(C)C)S(=O)(=O)c2ccc(N)cc2)s1)C(F)(F)F)C(c1ccccc1)c1ccccc1 [Example 77, N-[(1S)-1-{5-[(1R)-1-{[(4-aminophenyl)sulfonyl](propan-2-yl)amino}-2-hydroxyethyl]thiophen-2-yl}-2,2,2-trifluoroethyl]-Nα-(methoxycarbonyl)-β-phenyl-L-phenylalaninamide]	23
COC(=O)N[C@H](C(=O)N[C@H](c1ccc([C@@H](CO)N(C(C)C)S(=O)(=O)c2ccc3[nH]ccc3c2)s1)C(F)(F)F)C(c1ccccc1)c1ccccc1 [Example 78, Nα-(methoxycarbonyl)-β-phenyl-N-[(1S)-2,2,2-trifluoro-1-(5-{(1R)-2-hydroxy-1-[(1H-indol-5-ylsulfonyl)(propan-2-yl)amino]ethyl}thiophen-2-yl)ethyl]-L-phenylalaninamide]	66.1
COC(=O)N[C@H](C(=O)N[C@H](c1ccc([C@@H](CO)N(C(C)C)S(=O)(=O)c2ccc3cc[nH]c3c2)s1)C(F)(F)F)C(c1ccccc1)c1ccccc1 [Example 79, Nα-(methoxycarbonyl)-β-phenyl-N-[(1S)-2,2,2-trifluoro-1-(5-{(1R)-2-hydroxy-1-[(1H-indol-6-ylsulfonyl)(propan-2-yl)amino]ethyl}thiophen-2-yl)ethyl]-L-phenylalaninamide]	12.5
COC(=O)N[C@H](C(=O)N[C@H](c1ccc([C@@H](CO)N(C(C)C)S(=O)(=O)c2ccc(N)c(F)c2)s1)C(F)(F)F)C(c1ccccc1)c1ccccc1 [Example 80, N-[(1S)-1-{5-[(1R)-1-{[(4-amino-3-fluorophenyl)sulfonyl](propan-2-yl)amino}-2-hydroxyethyl]thiophen-2-yl}-2,2,2-trifluoroethyl]-Nα-(methoxycarbonyl)-β-phenyl-L-phenylalaninamide]	30.5
COC(=O)N[C@H](C(=O)N[C@H](c1ccc([C@@H](CO)N(C(C)C)S(=O)(=O)c2ccc3cn[nH]c3c2)s1)C(F)(F)F)C(c1ccccc1)c1ccccc1 [Example 81, Nα-(methoxycarbonyl)-β-phenyl-N-[(1S)-2,2,2-trifluoro-1-(5-{(1R)-2-hydroxy-1-[(1H-indazol-6-ylsulfonyl)(propan-2-yl)amino]ethyl}thiophen-2-yl)ethyl]-L-phenylalaninamide]	74.1
COC(=O)N[C@H](C(=O)N[C@H](c1ccc([C@@H](CO)N(CCC(C)C)S(=O)(=O)c2ccc(N)cc2)s1)C(F)(F)F)C(c1ccccc1)c1ccccc1 [Example 83, N-[(1S)-1-{5-[(1R)-1-{[(4-aminophenyl)sulfonyl](3-methylbutyl)amino}-2-hydroxyethyl]thiophen-2-yl}-2,2,2-trifluoroethyl]-Nα-(methoxycarbonyl)-β-phenyl-L-phenylalaninamide]	0.3
COC(=O)N[C@H](C(=O)N[C@H](c1ccc([C@@H](CO)N(CC2CC(F)(F)C2)S(=O)(=O)c2ccc(N)cc2)s1)C(F)(F)F)C(c1ccccc1)c1ccccc1 [Example 84, N-[(1S)-1-{5-[(1R)-1-{[(4-aminophenyl)sulfonyl][(3,3-difluorocyclobutyl)methyl]amino}-2-hydroxyethyl]thiophen-2-yl}-2,2,2-trifluoroethyl]-Nα-(methoxycarbonyl)-β-phenyl-L-phenylalaninamide]	0.75
COC(=O)N[C@H](C(=O)N[C@H](c1ccc([C@@H](CO)N(CCC(F)(F)F)S(=O)(=O)c2ccc(N)cc2)s1)C(F)(F)F)C(c1ccccc1)c1ccccc1 [Example 85, N-[(1S)-1-{5-[(1R)-1-{[(4-aminophenyl)sulfonyl](3,3,3-trifluoropropyl)amino}-2-hydroxyethyl]thiophen-2-yl}-2,2,2-trifluoroethyl]-Nα-(methoxycarbonyl)-β-phenyl-L-phenylalaninamide]	0.33
COC(=O)N[C@H](C(=O)N[C@H](c1ccc([C@@H](CO)N(CCC2CC2)S(=O)(=O)c2ccc(N)cc2)s1)C(F)(F)F)C(c1ccccc1)c1ccccc1 [Example 86]	0.34
COC(=O)N[C@H](C(=O)N[C@H](c1ccc([C@@H](CO)NS(=O)(=O)c2ccc(N)cc2)s1)C(F)(F)F)C(c1ccccc1)c1ccccc1 [Example 87, N-[(1S)-1-{5-[(1R)-1-{[(4-aminophenyl)sulfonyl]amino}-2-hydroxyethyl]thiophen-2-yl}-2,2,2-trifluoroethyl]-Nα-(methoxycarbonyl)-β-phenyl-L-phenylalaninamide]	194
CCCCN([C@H](CO)c1ccc([C@@H](NC(=O)[C@@H](NC(=O)OC)C(c2ccccc2)c2ccccc2)C(F)(F)F)s1)S(=O)(=O)c1ccc(N)cc1 [Example 88, N-[(1S)-1-{5-[(1R)-1-{[(4-aminophenyl)sulfonyl](butyl)amino}-2-hydroxyethyl]thiophen-2-yl}-2,2,2-trifluoroethyl]-Nα-(methoxycarbonyl)-β-phenyl-L-phenylalaninamide]	0.33
COC(=O)N[C@H](C(=O)N[C@H](c1ccc([C@@H](CO)N(CCc2ccccc2)S(=O)(=O)c2ccc(N)cc2)s1)C(F)(F)F)C(c1ccccc1)c1ccccc1 [Example 89, N-[(1S)-1-{5-[(1R)-1-{[(4-aminophenyl)sulfonyl](2-phenylethyl)amino}-2-hydroxyethyl]thiophen-2-yl}-2,2,2-trifluoroethyl]-Nα-(methoxycarbonyl)-β-phenyl-L-phenylalaninamide]	2.6
COC(=O)N[C@H](C(=O)N[C@H](c1ccc([C@@H](CO)N(CCC(C)(C)C)S(=O)(=O)c2ccc(-c3cnco3)cc2)s1)C(F)(F)F)C(c1ccccc1)c1ccccc1 [Example 90, N-[(1S)-1-(5-{(1R)-1-[(3,3-dimethylbutyl){[4-(1,3-oxazol-5-yl)phenyl]sulfonyl}amino]-2-hydroxyethyl}thiophen-2-yl)-2,2,2-trifluoroethyl]-Nα-(methoxycarbonyl)43-phenyl-L-phenylalaninamide]	25.9
COC(=O)N[C@H](C(=O)N[C@H](c1ccc([C@@H](CO)N(CCC(C)(C)C)S(=O)(=O)c2ccc3scnc3c2)s1)C(F)(F)F)C(c1ccccc1)c1ccccc1 [Example 91, N-[(1S)-1-(5-{(1R)-1-[(1,3-benzothiazol-5-ylsulfonyl)(3,3-dimethylbutyl)amino]-2-hydroxyethyl}thiophen-2-yl)-2,2,2-trifluoroethyl]-Nα-(methoxycarbonyl)-β-phenyl-L-phenylalaninamide]	2.9
COC(=O)N[C@H](C(=O)N[C@H](c1ccc([C@@H](CO)N(CCC(C)(C)C)S(=O)(=O)c2ccc(-c3ccn(C)n3)cc2)s1)C(F)(F)F)C(c1ccccc1)c1ccccc1 [Example 92]	66.6
COC(=O)N[C@H](C(=O)N[C@H](c1ccc([C@@H](CO)N(CCC(C)(C)C)S(=O)(=O)c2ccc3[nH]ncc3c2)s1)C(F)(F)F)C(c1ccccc1)c1ccccc1 [Example 93, N-[(1S)-1-(5-{(1R)-1-[(3,3-dimethylbutyl)(1H-indazol-5-ylsulfonyl)amino]-2-hydroxyethyl}thiophen-2-yl)-2,2,2-trifluoroethyl]-Nα-(methoxycarbonyl)-β-phenyl-L-phenylalaninamide]	0.31
COC(=O)N[C@H](C(=O)N[C@H](c1ccc([C@@H](CO)N(CCC(C)(C)C)S(=O)(=O)c2ccc3cc[nH]c3c2)s1)C(F)(F)F)C(c1ccccc1)c1ccccc1 [Example 94, N-[(1S)-1-(5-{(1R)-1-[(3,3-dimethylbutyl)(1H-indol-6-ylsulfonyl)amino]-2-hydroxyethyl}thiophen-2-yl)-2,2,2-trifluoroethyl]-Nα-(methoxycarbonyl)-β-phenyl-L-phenylalaninamide]	0.09
COC(=O)N[C@H](C(=O)N[C@H](c1ccc([C@@H](CO)N(CCC(C)(C)C)S(=O)(=O)c2cc3ccccc3s2)s1)C(F)(F)F)C(c1ccccc1)c1ccccc1 [Example 95, N-[(1S)-1-(5-{(1R)-1-[(1-benzothiophen-2-ylsulfonyl)(3,3-dimethylbutyl)amino]-2-hydroxyethyl}thiophen-2-yl)-2,2,2-trifluoroethyl]-Nα-(methoxycarbonyl)-β-phenyl-L-phenylalaninamide]	6.95
COC(=O)N[C@H](C(=O)N[C@H](c1ccc([C@@H](CO)N(CCC(C)(C)C)S(=O)(=O)c2ccc3ocnc3c2)s1)C(F)(F)F)C(c1ccccc1)c1ccccc1 [Example 96, N-[(1S)-1-(5-{(1R)-1-[(1,3-benzoxazol-5-ylsulfonyl)(3,3-dimethylbutyl)amino]-2-hydroxyethyl}thiophen-2-yl)-2,2,2-trifluoroethyl]-Nα-(methoxycarbonyl)-β-phenyl-L-phenylalaninamide]	1.95
COC(=O)N[C@H](C(=O)N[C@H](c1ccc([C@@H](CO)N(CCC(C)(C)C)S(=O)(=O)c2ccc(N)c(F)c2)s1)C(F)(F)F)C(c1ccccc1)c1ccccc1 [Example 97, N-[(1S)-1-{5-[(1R)-1-{[(4-amino-3-fluorophenyl)sulfonyl](3,3-dimethylbutyl)amino}-2-hydroxyethyl]thiophen-2-yl}-2,2,2-trifluoroethyl]-Nα-(methoxycarbonyl)-β-phenyl-L-phenylalaninamide]	1.23
